From patent US11286268B1, “EIF4E-inhibiting compounds and methods” (EFFECTOR THERAPEUTICS, INC., priority 2019, dated 2022)
Read-outs that look alike come from different tables or passages of the source.

Biological target: recombinant eIF4E (Homo sapiens (Human), UniProt P06730)
Experiment: Fluorescence polarization competition assay for eIF4E binding potency
Method in brief: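 IC50 values reflect 50% displacement of 20 nM EDA-m7GDP-ATTO-550 from 75 nM eIF4E, measured by fluorescence polarization after 30 min at room temperature. Buffer: 20 mM Tris pH 7.5, 100 mM NaCl, 1 mM DTT, 0.02% Tween-20; 1% DMSO.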

[1] = fluorescence polarization competition, 75 nM recombinant eIF4E, 20 nM EDA-m7GDP-ATTO-550, IC50 class, read-out: elF4E FP
[2] = inhibition of eIF4E/EDA-m7GDP-ATTO-550 binding by 50%, Table 4B calculated values, read-out: IC50
[3] = inhibition of eIF4E/EDA-m7GDP-ATTO-550 binding, calculated IC50 values, Table 4B, read-out: IC50

recombinant eIF4E, sequence (P06730 whole entry): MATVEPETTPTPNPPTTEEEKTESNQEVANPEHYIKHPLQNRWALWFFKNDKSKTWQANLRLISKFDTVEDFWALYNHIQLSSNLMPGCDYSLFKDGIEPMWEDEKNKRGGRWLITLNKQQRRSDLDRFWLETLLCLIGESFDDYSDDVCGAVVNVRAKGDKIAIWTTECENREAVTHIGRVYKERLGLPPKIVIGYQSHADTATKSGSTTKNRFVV

Row | SMILES | IC50 [1] [nM] | IC50 [2] [nM] | IC50 [3] [nM]
1 | Cc1cc(-c2cc(Cl)ccc2OCCn2c(C)nc3cnc(N4CC5CCC(C4)N5C)c(C#N)c3c2=O)c2sc(C)c(C(=O)O)c2n1 [compound 868] | < 50 | 17.2 | 
2 | Cc1cc(-c2cc(Cl)ccc2OCCn2c(C)nc3cc(C(F)(F)F)c(-c4ncc(F)cc4F)c(C#N)c3c2=O)c2scc(C(=O)O)c2n1 [compound 433] | < 50 | 4.15 | 
3 | Cc1nc(N2CC3(CN(C)C3)C2)c(C#N)c2c(=O)n(CCOc3ccc(Cl)cc3-c3ccnc4c(C(=O)O)csc34)c(C)nc12 [compound 1265] |  |  | 11.5
4 | Cc1sc2c(-c3cc(Cl)ccc3OCCn3c(C)nc4c(F)cc(C(F)F)c(C#N)c4c3=O)ccnc2c1C(=O)O [compound 123] | < 50 | 36.5 | 
5 | Cc1nc2c(F)cc(C(F)F)c(C#N)c2c(=O)n1CCOc1ccc(Cl)cc1-c1ccnc2c(-c3nnn[nH]3)csc12 [compound 302] | 50 to 1000 | 77.6 | 
6 | Cc1cc(-c2cc(Cl)ccc2OCCn2c(C)nc3ccc(N(C)C)nc3c2=O)c2scc(C(=O)O)c2n1 [compound 679] | 50 to 1000 | 160 | 
7 | Cc1nc2cc(C#N)c(C(F)F)c(C#N)c2c(=O)n1CCOc1ccc(Cl)cc1-c1cccc(C(=O)O)c1 [compound 63] | < 50 | 25.8 | 
8 | CNC(=O)c1cc2c(=O)n(CCOc3ccc(Cl)cc3-c3cccc(C(=O)O)c3)cnc2cn1 [compound 132] | 50 to 1000 | 624 | 
9 | Cc1nc2cnc(N3CCN(C4(CC(F)F)CC4)CC3)c(C#N)c2c(=O)n1CCOc1ccc(Cl)cc1-c1ccnc2c(C(=O)O)csc12 [compound 1643] |  |  | 18.8
10 | Cc1cc(-c2cc(Cl)ccc2OCCn2c(C)nc3cnc(C4CC4C(F)(F)F)c(C#N)c3c2=O)c2scc(C(=O)O)c2n1 (stereo not shown) [compound 994] | < 50 | 23.4 | 
11 | Cc1nc2cc(C(F)(F)F)c(N3CCN(C)CC3)c(C#N)c2c(=O)n1CCOc1ccc(Cl)cc1-c1cc(CF)nc2ccsc12 [compound 1253] |  |  | 8.4
12 | Cc1nc2cncc(C#N)c2c(=O)n1CCOc1ccc(Cl)cc1-c1cccc(P(=O)(O)OC(C)C)c1 [150FB] |  | 143 | 
13 | Cc1nc2cnc(N3CC4(CC(N(C)C5CC5)C4)C3)c(C#N)c2c(=O)n1CC#Cc1ccc(Cl)cc1-c1ccnc2c(C(=O)O)csc12 [compound 830] | < 50 | 12.8 | 
14 | Cc1cc(-c2cc(Cl)ccc2OCCn2c(C)nc3c(C(C)C)ncc(C#N)c3c2=O)c2scc(C(=O)O)c2n1 [compound 491] | < 50 | 22.9 | 
15 | Cc1cc(-c2cc(Cl)ccc2OCCn2c(C)nc3cc(C(F)(F)F)c(-c4cnc(Cl)cc4F)c(C#N)c3c2=O)c2scc(C(=O)O)c2n1 [compound 1384] |  |  | 6.86
16 | CCN(c1ncc2nc(C)n(CC#Cc3ccc(Cl)cc3-c3ccnc4c(C(=O)NS(=O)(=O)C5CCC5)csc34)c(=O)c2c1C#N)C1CCN(C2COC2)CC1 [compound 1748] |  |  | 17.5
17 | Cc1nc2cnc(N3CCC4(CC3)CN(CC(F)F)C4)c(C#N)c2c(=O)n1CC#Cc1ccc(Cl)cc1-c1ccnc2c(C(=O)O)csc12 [compound 1136] | < 50 | 17 | 
18 | Cc1nc2cc(C(F)(F)F)c(CCN(C)C)c(C#N)c2c(=O)n1CC#Cc1ccc(Cl)cc1-c1ccnc2c(C(=O)O)csc12 [compound 1298] |  |  | 38.3
19 | Cc1nc2cnc(N(C)C3CCN(CC(=O)C4CC4)CC3)c(C#N)c2c(=O)n1CCOc1ccc(Cl)cc1-c1ccnc2c(C(=O)O)csc12 [compound 1128] | < 50 | 23.9 | 
20 | Cc1nc2cnc(N(C)C34CCC(N(C)CCF)(CC3)C4)c(C#N)c2c(=O)n1CC#Cc1ccc(Cl)cc1-c1ccnc2c(C(=O)O)csc12 [compound 1106] | < 50 | 17.4 | 
21 | Cc1nc2cnc(N(C)C3CCN(CC(F)(F)C(F)(F)F)CC3)c(C#N)c2c(=O)n1CC#Cc1ccc(Cl)cc1-c1ccnc2c(C(=O)O)csc12 [compound 1119] | < 50 | 14.6 | 
22 | Cc1nc2cc(C(F)(F)F)cc(C#N)c2c(=O)n1CCOc1ccc(Cl)cc1-c1ccnc2cc(C(=O)O)sc12 [compound 199] | 50 to 1000 | 143 | 
23 | Cc1nc2cnc(C#CCN(C)C3(C)CC3)c(C#N)c2c(=O)n1CCOc1ccc(Cl)cc1-c1ccnc2c(C(=O)O)csc12 [compound 1346] |  |  | 19.7
24 | Cc1nc2cnc(/C=C/CN3CC(F)C3)c(C#N)c2c(=O)n1CCOc1ccc(Cl)cc1-c1ccnc2c(C(=O)O)csc12 [compound 1122] | < 50 | 14.6 | 
25 | CCc1cc(-c2c(C(F)(F)F)cc3nc(C)n(CCOc4ccc(Cl)cc4-c4cc(C)nc5c(C(=O)O)csc45)c(=O)c3c2C#N)ccn1 [compound 468] | < 50 | 4.36 | 
26 | Cc1cc(-c2cc(Cl)ccc2OCCn2c(C)nc3cc(C(F)(F)F)c(-c4cnc(C(F)F)cn4)nc3c2=O)c2scc(C(=O)O)c2n1 [compound 1020] | < 50 | 23.4 | 

Row | SMILES | IC50 [1] [nM] | IC50 [2] [nM] | IC50 [3] [nM]
27 | Cc1nc2ccc(CCN(C)C)c(C#N)c2c(=O)n1CCOc1ccc(Cl)cc1-c1cc(OC(F)F)nc2c(C(=O)O)csc12 [compound 575] | < 50 | 25.7 | 
28 | Cc1ccc(-c2cc(Cl)ccc2OCCn2c(C)nc3c(C#N)nc(-c4ccccn4)c(C)c3c2=O)c2scc(C(=O)O)c12 [compound 743] | 50 to 1000 | 188 | 
29 | Cc1nc2cc(C(F)(F)F)c(CC3CN(CCF)C3)c(C#N)c2c(=O)n1CCOc1ccc(Cl)cc1-c1ccnc2c(C(=O)O)csc12 [compound 321] | < 50 | 4.89 | 
30 | CCc1cc(-c2cc(Cl)ccc2OCCn2c(C)nc3cnc(N4CCNC5CC54)c(C#N)c3c2=O)c2scc(C(=O)O)c2n1 (stereo not shown) [compound 1220] | < 50 |  | 13.1
31 | Cc1nc2cnc(N(C)C3CCN(C(C)CF)CC3)c(C#N)c2c(=O)n1CC#Cc1ccc(Cl)cc1-c1ccnc2c(C(=O)O)csc12 (stereo not shown) [compound 1508] |  |  | 17.4
32 | Cc1ccc(-c2cc(Cl)ccc2OCCn2c(C)nc3cnc(C4CC4)c(C#N)c3c2=O)c2scc(C(=O)O)c12 [compound 794] | < 50 | 3.41 | 
33 | Cc1nc2c(F)cc(C(F)F)c(C#N)c2c(=O)n1CCOc1cc(F)c(Cl)cc1-c1ccnc2c(C(=O)O)csc12 [compound 504] | < 50 | 22.9 | 
34 | Cc1cc(-c2cc(Cl)ccc2C#CCn2c(C)nc3c(C)nc(N4CCN(C)CC4)c(C#N)c3c2=O)c2scc(C(=O)O)c2n1 [compound 450] | < 50 | 7.84 | 
35 | N#Cc1cc2c(=O)n(CCOc3ccc(Cl)cc3-c3ccnc4c(C(=O)O)csc34)cnc2cn1 [compound 30] | 50 to 1000 | 164 | 
36 | Cc1cc(-c2cc(Cl)ccc2OCCn2c(C)nc3cnc(-c4ccccc4F)c(C#N)c3c2=O)c2scc(C(=O)O)c2n1 [compound 941] | < 50 | 20 | 
37 | Cc1nc2cnc(N(C)C3CCN(C(C)(C)C(F)F)CC3)c(C#N)c2c(=O)n1CCOc1ccc(Cl)cc1-c1ccnc2c(C(=O)O)csc12 [compound 1431] |  |  | 19.8
38 | Cc1nc2cnc(N(C)C3CCN(CC(F)F)CC3)c(C#N)c2c(=O)n1CC#Cc1ccc(Cl)cc1-c1ccnc2c(C(N)=O)csc12 [compound 1281] |  |  | 117
39 | N#Cc1cc2c(=O)n(CCOc3ccc(Cl)cc3-c3cccc4c(C(=O)O)nccc34)cnc2cn1 [compound 118] | 50 to 1000 | 416 | 
40 | Cc1nc2cncc(C#N)c2c(=O)n1C/C=C/c1ccc(Cl)cc1-c1cccc(C(=O)O)c1 [compound 44] | 50 to 1000 | 73.1 | 
41 | Cc1nc2cnc(N(C)C3CCN(C4(C(F)F)COC4)CC3)c(C#N)c2c(=O)n1CC#Cc1ccc(Cl)cc1-c1ccnc2c(C(=O)NS(C)(=O)=O)csc12 [compound 1590] |  |  | 36
42 | CC(=O)N1CCN(c2c(C(F)(F)F)cc3nc(C)n(CCOc4ccc(Cl)cc4-c4cccc(C(=O)O)c4)c(=O)c3c2C#N)CC1 [compound 378] | < 50 | 45.1 | 
43 | Cc1cc(-c2cc(Cl)ccc2C#CCn2c(C)nc3cc(C(F)(F)F)c(-c4ccncn4)c(C#N)c3c2=O)c2scc(C(=O)O)c2n1 [compound 908] | < 50 | 3.26 | 
44 | Cc1ncc(F)cc1-c1c(CN(C)C)cc2nc(C)n(CCOc3ccc(Cl)cc3-c3ccnc4c(C(=O)O)csc34)c(=O)c2c1C#N [compound 1267] |  |  | > 1000
45 | Cc1nc2cc(C(F)(F)F)cc(C#N)c2c(=O)n1CCOc1[nH]c(=O)c(Cl)cc1-c1ccnc2c(C(=O)O)csc12 [compound 356] | > 1000 | 1220 | 
46 | CCc1ncc(C#N)c2c(=O)n(CCOc3ccc(Cl)cc3-c3cc(C)nc4c(C(=O)O)csc34)c(C)nc12 [compound 338] | < 50 | 45.3 | 
47 | N#Cc1cc2c(=O)n(CCOc3ccc(Cl)cc3-c3ccc(OC(F)F)c(C(=O)O)c3)cnc2cn1 [compound 111] | 50 to 1000 | 434 | 
48 | CCN(c1ncc2nc(C)n(CC#Cc3ccc(Cl)cc3-c3ccnc4c(C(=O)O)csc34)c(=O)c2c1C#N)C1CCN(CC(F)(F)F)CC1 [compound 1176] | < 50 | 34.3 | 
49 | C#Cc1c(-c2cc(Cl)ccc2OCCn2c(C)nc3cc(C(F)(F)F)cc(C#N)c3c2=O)ccnc1C(=O)O [compound 58] | 50 to 1000 | 50.2 | 
50 | Cc1cc(-c2cc(Cl)ccc2OCCn2c(C)nc3c(-c4ccccc4)nc(N4CCN(C)CC4)c(C#N)c3c2=O)c2scc(C(=O)O)c2n1 [compound 1217] | < 50 |  | 24.2
51 | Cc1cc(-c2cc(Cl)ccc2OCCn2c(C)nc3cc(F)c(CN4CCN(C)CC4)c(C#N)c3c2=O)c2scc(C(=O)O)c2n1 [compound 366] | < 50 | 6.66 | 
52 | Cc1nc2cc(C(F)(F)F)cc(C#N)c2c(=O)n1CCOc1ccccc1-c1ccnc2c(C(=O)O)csc12 [compound 227] | 50 to 1000 | 507 | 
